{"source": "patent US6136852A", "about": "“3,4-disubstituted phenylethanolaminotetralincarboxylic acid derivatives” (Kissei Pharmaceutical Co., Ltd., priority 1996, dated 2000)", "key": {"female ICR mice": {"test_system": "female ICR mice", "assay": "Acute toxicity test", "assay_type": "in vivo", "settings": "intravenous, 30 mg/kg in saline", "protocol": "To 3 female ICR mice of 4 weeks age was administered intravenously ethyl 2-[(2S)-2-[[(2RS)-2-hydroxy-2-(4-hydroxy-3-hydroxymethylphenyl)ethyl]amino]-1,2,3,4-tetrahydronaphthalen-7-yloxy]acetate dissolved in saline at dose of 30 mg/kg."}, "β2 -adrenergic receptor": {"target": "T1, β2 -adrenergic receptor (Rattus norvegicus, UniProt P10608)", "T1 construct": "The uteri of pregnant SD rats (pregnancy day 21) were isolated; from tissue; host or cells: longitudinal uterine muscle strips of pregnant SD rats (day 21)", "T1 sequence (P10608 whole entry)": "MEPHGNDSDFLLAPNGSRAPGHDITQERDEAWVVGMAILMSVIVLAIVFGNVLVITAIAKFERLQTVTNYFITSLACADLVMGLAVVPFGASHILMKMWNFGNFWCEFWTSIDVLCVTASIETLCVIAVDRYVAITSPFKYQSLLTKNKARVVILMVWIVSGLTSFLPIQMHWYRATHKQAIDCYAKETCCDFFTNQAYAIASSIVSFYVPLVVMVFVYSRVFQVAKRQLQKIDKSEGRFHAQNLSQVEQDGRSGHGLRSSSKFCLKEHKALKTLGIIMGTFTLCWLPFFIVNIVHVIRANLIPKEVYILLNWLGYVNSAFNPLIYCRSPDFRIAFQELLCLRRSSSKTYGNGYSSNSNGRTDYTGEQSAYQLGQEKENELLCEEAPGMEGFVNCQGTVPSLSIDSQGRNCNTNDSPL", "assay": "Action of drugs on the spontaneous contractions of isolated pregnant rat myometrium (β2-adrenergic receptor stimulating activity)", "assay_type": "cell-based", "settings": "isolated pregnant SD rat uterus (pregnancy day 21), Magnus method; read-out: EC50 value (activity to relax 50% of the spontaneous contractions of rat myometrium)", "protocol": "Thus, the compounds of the present invention have markedly potent β2 -adrenergic receptor stimulating effect and therefore are remarkably useful as β2 -adrenergic receptor stimulating agents.\nAction of Drugs on the Spontaneous Contractions of Isolated Pregnant Rat Myometrium\nThe uteri of pregnant SD rats (pregnancy day 21) were isolated and longitudinal uterine muscle strips (about 15 mm in length and about 5 mm in width) free from the basal plate were prepared. The experiment was conducted according to the Magnus method. The sample with a tension of 1 g was exposed to Locke-Ringer solution maintained at 37° C. and gassed with a mixture of 95% of oxygen and 5% of carbon dioxide. The spontaneous contractions of the myometrium were induced isometrically via a pressure transducer and recorded on a rectigram. The drug efficacy was evaluated as 50% inhibitory drug concentration (i.e., EC50 value) by comparing the total degree of uterine contraction during 5 minutes before the addition of the drug with the total degree of uterine contraction during 5 minutes after the addition of the drug."}, "β1 -adrenergic receptor": {"test_system": "β1 -adrenergic receptor", "assay": "Action of drugs on the atrial contractions of isolated rat atrium (β1-adrenergic receptor stimulating activity)", "assay_type": "cell-based", "settings": "isolated SD male rat atrium, Magnus method", "protocol": "Thus, the compounds of the present invention have markedly weak β1 -adrenergic receptor stimulating effect in comparison with the aforementioned β2 -adrenergic receptor stimulating effect.\nAction of Drugs on the Atrial Contractions of Isolated Atrium\nThe atria of SD male rats (350 to 400 g in body weight) were isolated and the experiment was conducted according to the Magnus method. The sample with a tension of 1 g was exposed to Krebs-Henseleit solution maintained at 37° C. and gassed with a mixture of 95% of oxygen and 5% of carbon dioxide. The atrial contraction was induced isometrically via a pressure transducer and recorded on a rectigram. After addition of the drug, its efficacy was evaluated as drug concentration that increased 20 beats per minute of heart rate (i.e., EC20 value)."}}, "data": [{"smiles": "CCOC(=O)COc1ccc2c(c1)C[C@@H](NCC(O)c1ccc(O)c(CO)c1)CC2", "note": "(mixture of isomers) [Compound 4, Ethyl 2-[(2S)-2-[[(2RS)-2-hydroxy-2-(4-hydroxy-3-hydroxymethylphenyl)ethyl]amino]-1,2,3,4-tetrahydronaphthalen-7-yloxy]acetate]", "values": [{"measurement": "death of animals during 24 hours after the administration", "setting": "female ICR mice", "result": "No death of animals was observed"}, {"measurement": "EC50", "setting": "β2 -adrenergic receptor", "result": 1.1, "unit": "nM"}, {"measurement": "EC20 value (concentration that increases 20 beats per minute of rat heart rate)", "setting": "β1 -adrenergic receptor", "result": "1.1×10^-6 mol concentration"}]}]}
